# Source: patent US10752617B2 (GALDERMA RESEARCH & DEVELOPMENT, priority 2014, dated 2020)
# Biological target: T1, GAL4-RORγ (GAL4 DBD fused to the ROR gamma ligand-binding domain) (Homo sapiens, UniProt P51449)
# T1 construct: expressed in transfected cells; host or cells: HG5LN (HeLa line with GAL4-responsive luciferase reporter)
# T1 sequence (P51449 269-508 limits assumed): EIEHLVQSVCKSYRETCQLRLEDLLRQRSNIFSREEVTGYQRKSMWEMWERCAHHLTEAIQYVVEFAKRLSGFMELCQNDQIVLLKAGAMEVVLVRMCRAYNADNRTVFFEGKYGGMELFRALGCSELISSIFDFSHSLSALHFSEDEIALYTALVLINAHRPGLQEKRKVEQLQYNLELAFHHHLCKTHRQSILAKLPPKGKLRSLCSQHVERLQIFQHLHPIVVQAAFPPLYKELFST
# Experiment: GAL4-RORγ transactivation (luciferase reporter, HG5LN HeLa line)
# Format: cell-based
# Details: HG5LN HeLa cells, 18 hours incubation, luciferase luminescence, read-out: IC50 hRORg
# From the text: In the tables described above, the median inhibitory concentrations IC50 for the compounds belonging to formula (I) according to the invention have been given according to the following models:
# GAL4-RORγ Transactivation
# The RORγ transactivation model was developed from the line HG5LN, which is a HeLa line that stably expresses a luciferase reporter gene controlled by a pentamer of the GAL4 recognition domain of yeast and of a β-globin promoter. The HG5LN line was stably transfected by the DNA-binding domain (DBD) of GAL4 fused to the ROR gamma ligand-binding domain (LBD). Molecules that inhibit the ROR gamma constitutive activity reduce the luciferase expression, thus leading to a reduction in the emitted luminescence.
# The cells are seeded in 384-well plates (5000 cells in 45 μL/well of culture medium containing 10% fetal calf serum) and incubated for 4 hours at 37° C., 5% CO2. 5 μL of the test molecules (compounds described in the tables described above) are then added to each well and the plates are incubated for 18 hours at a temperature of 37° C. under 5% of CO2. 20 μL of luciferase substrate (Promega) are added to each well and the luminescence emitted is read by a microplate reader.
# The luminescence units (“RLU”) are normalized by positive controls (“POS” containing a saturated concentration of N-(2,2,2-trifluoroethyl)-N-[4-[2,2,2-trifluoro-1-hydroxy-1-(trifluoromethyl)ethyl]phenyl])benzenesulfonamide and negative controls (“NEG” containing DMSO): % inhibition=((RLU−NEG)*100)/(POS−NEG). The IC50 values are calculated from a 4-parameter logistic model using the XLFit software (IDBS).
row,SMILES,IC50
1,"CC(C)CN(Cc1cccc(Cl)c1)S(=O)(=O)c1ccc2c(cnn2CC2CCOCC2)c1 [Compound 51, 1-(tetrahydropyran-4-ylmethyl)-1H-indazole-5-sulfonic acid (3-chlorobenzyl)isobutylamide]",> 1000 nM
2,"CCCCN(c1ccc(CC)cc1)S(=O)(=O)c1ccc2c(cnn2CC2CCOCC2)c1 [Compound 9, 1-(tetrahydropyran-4-ylmethyl)-1H-indazole-5-sulfonic acid butyl(4-ethylphenyl)amide]",> 1000 nM
3,CCc1ccc(N(CC(C)C)S(=O)(=O)c2ccc3c(cnn3CC3CN(C(C)=O)C3)c2)cc1 [Compound 19],> 1000 nM
4,"Cc1ccccc1N(CC(C)C)S(=O)(=O)c1ccc2c(cnn2CC2CCOCC2)c1 [Compound 48, 1-(tetrahydropyran-4-ylmethyl)-1H-indazole-5-sulfonic acid isobutyl-o-tolylamide]",> 1000 nM
5,"CC(C)CN(c1ccc(F)cc1)S(=O)(=O)c1ccc2c(cnn2CC2CCOCC2)c1 [Compound 46, 1-(tetrahydropyran-4-ylmethyl)-1H-indazole-5-sulfonic acid (4-fluorophenyl)isobutylamide]",> 1000 nM
6,"CCc1ccc(N(C2CC2)S(=O)(=O)c2ccc3c(cnn3CC3CCOCC3)c2)cc1 [Compound 3, 1-(tetrahydropyran-4-ylmethyl)-1H-indazole-5-sulfonic acid cyclopropyl(4-ethylphenyl)amide]",> 1000 nM
7,"CCCN(c1ccc(CC)cc1)S(=O)(=O)c1ccc2c(cnn2CC2CCOCC2)c1 [Compound 8, 1-(tetrahydropyran-4-ylmethyl)-1H-indazole-5-sulfonic acid (4-ethylphenyl)propyl]",> 1000 nM
8,"CCc1ccc(N(CC(C)C)S(=O)(=O)c2ccc3c(cnn3CC3CCCOC3)c2)cc1 (centres unmarked) [Compound 22, N-(4-ethylphenyl)-N-isobutyl-1-((tetrahydro-2H-pyran-3-yl)methyl)-1H-indazole-5-sulfonamide]",> 1000 nM
9,"COc1cccc(N(CC(C)C)S(=O)(=O)c2ccc3c(cnn3CC3CCOCC3)c2)c1 [Compound 25, 1-(tetrahydropyran-4-ylmethyl)-1H-indazole-5-sulfonic acid (3-methoxyphenyl)isobutylamide]",> 1000 nM
10,"CCCCc1ccc(N(CC(C)C)S(=O)(=O)c2ccc3c(cnn3CC3CCOCC3)c2)c(C)c1 [Compound 13, 1-(tetrahydropyran-4-ylmethyl)-1H-indazole-5-sulfonic acid (4-butyl-2-methylphenyl)isobutylamide]",100 to 1000 nM
11,"CCc1ccc(N(CC(C)C)S(=O)(=O)c2ccc3c(C=C4CCOCC4)n[nH]c3c2)cc1 [Compound 62, 3-(tetrahydropyran-4-ylidenemethyl)-1H-indazole-6-sulfonic acid (4-ethylphenyl)isobutylamide]",< 100 nM
12,"CC(C)CN(Cc1ccccc1C(F)(F)F)S(=O)(=O)c1ccc2c(cnn2CC2CCOCC2)c1 [Compound 52, 1-(tetrahydropyran-4-ylmethyl)-1H-indazole-5-sulfonic acid isobutyl(2-trifluoromethylbenzyl)amide]",100 to 1000 nM
13,"CCc1ccc(N(CC2CCC2)S(=O)(=O)c2ccc3c(cnn3CC3CCOCC3)c2)cc1 [Compound 24, N-(cyclobutylmethyl)-N-(4-ethylphenyl)-1-((tetrahydro-2H-pyran-4-yl)methyl)-1H-indazole-5-sulfonamide]",100 to 1000 nM
14,"CCc1ccc(N(CC(C)C)S(=O)(=O)c2ccc3c(CN4CCOC[C@@H]4C)n[nH]c3c2)cc1 [Compound 66, 3-((S)-3-methylmorpholin-4-ylmethyl)-1H-indazole-6-sulfonic acid (4-ethylphenyl)isobutylamide]",100 to 1000 nM
15,"CCc1ccc(N(CC2COC2)S(=O)(=O)c2ccc3c(cnn3CC3CCOCC3)c2)cc1 [Compound 16, 1-(tetrahydropyran-4-ylmethyl)-1H-indazole-5-sulfonic acid (4-ethylphenyl)oxetan-3-ylmethylamide]",> 1000 nM
16,"CCc1ccc(N(C(C)C)S(=O)(=O)c2ccc3c(cnn3CC3CCOCC3)c2)cc1 [Compound 29, N-(4-ethylphenyl)-N-isopropyl-1-((tetrahydro-2H-pyran-4-yl)methyl)-1H-indazole-5-sulfonamide]",> 1000 nM

row,SMILES,IC50
1,"CCc1ccc(N(CC(C)C)S(=O)(=O)c2ccc3c(cnn3CC3CCN(C(C)=O)C3)c2)cc1 (centres unmarked) [Compound 20, 1-((1-acetylpyrrolidin-3-yl)methyl)-N-(4-ethylphenyl)-N-isobutyl-1H-indazole-5-sulfonamide]",> 1000 nM
2,"CCc1ccc(N(C(C)CC)S(=O)(=O)c2ccc3c(cnn3CC3CCOCC3)c2)cc1 (centres unmarked) [Compound 30, 1-(tetrahydropyran-4-ylmethyl)-1H-indazole-5-sulfonic acid sec-butyl(4-ethylphenyl)amide]",100 to 1000 nM
3,"CC(C)CN(c1ccc(C(C)C)cn1)S(=O)(=O)c1ccc2c(cnn2CC2CCOCC2)c1 [Compound 50, 1-(tetrahydropyran-4-ylmethyl)-1H-indazole-5-sulfonic acid isobutyl(5-isopropylpyridin-2-yl)amide]",> 1000 nM
4,"Cc1cc(F)ccc1N(CC(C)C)S(=O)(=O)c1ccc2c(cnn2CC2CCOCC2)c1 [Compound 54, 1-(tetrahydropyran-4-ylmethyl)-1H-indazole-5-sulfonic acid (4-fluoro-2-methylphenyl)isobutylamide]",100 to 1000 nM
5,"Cc1cccc(F)c1N(CC(C)C)S(=O)(=O)c1ccc2c(cnn2CC2CCOCC2)c1 [Compound 53, 1-(tetrahydropyran-4-ylmethyl)-1H-indazole-5-sulfonic acid (2-fluoro-6-methylphenyl)isobutylamide]",> 1000 nM
6,"CCc1ccc(N(CC(C)C)S(=O)(=O)c2ccc3c(CN4C[C@@H](C)O[C@@H](C)C4)n[nH]c3c2)cc1 [Compound 65, 3-((cis)-2,6-dimethylmorpholin-4-ylmethyl)-1H-indazole-6-sulfonic acid (4-ethylphenyl)isobutylamide]",> 1000 nM
7,"Cc1cc(C)cc(N(CC(C)C)S(=O)(=O)c2ccc3c(cnn3CC3CCOCC3)c2)c1 [Compound 28, 1-(tetrahydropyran-4-ylmethyl)-1H-indazole-5-sulfonic acid (3,5-dimethylphenyl)isobutylamide]",> 1000 nM
8,"CC(C)CN(c1cccc(Cl)c1)S(=O)(=O)c1ccc2c(cnn2CC2CCOCC2)c1 [Compound 44, 1-(tetrahydropyran-4-ylmethyl)-1H-indazole-5-sulfonic acid (5-chlorophenyl)isobutylamide]",> 1000 nM
9,"CCc1ccc(N(CC(C)C)S(=O)(=O)c2ccc3c(cnn3CC3CCOC3)c2)cc1 (centres unmarked) [Compound 21, N-(4-ethylphenyl)-N-isobutyl-1-((tetrahydrofuran-3-yl)methyl)-1H-indazole-5-sulfonamide]",> 1000 nM
10,"CCc1ccc(N(CC(C)C)S(=O)(=O)c2cc(C(=O)OC)c3c(cnn3CC3CCOCC3)c2)cc1 [Compound 74, methyl 5-[(4-ethylphenyl)isobutylsulfamoyl]-1-(tetrahydropyran-4-ylmethyl)-1H-indazole-7-carboxylate]",> 1000 nM
11,"Cc1c(F)cccc1N(CC(C)C)S(=O)(=O)c1ccc2c(cnn2CC2CCOCC2)c1 [Compound 43, 1-(tetrahydropyran-4-ylmethyl)-2H-indazole-5-sulfonic acid (3-fluoro-2-methylphenyl)isobutylamide]",100 to 1000 nM
12,"CCc1ccc(N(CC(C)C)S(=O)(=O)c2ccc3c(cnn3C3CCN(C(C)=O)C3)c2)cc1 (centres unmarked) [Compound 40, 1-(1-acetylpyrrolidin-3-yl)-1H-indazole-5-sulfonic acid (4-ethylphenyl)isobutylamide]",> 1000 nM
13,"CC(C)CN(c1ccc(OC(F)(F)F)cc1)S(=O)(=O)c1ccc2c(cnn2CC2CCOCC2)c1 [Compound 49, 1-(tetrahydropyran-4-ylmethyl)-1H-indazole-5-sulfonic acid (4-trifluoromethoxyphenyl)isobutylamide]",> 1000 nM
14,"Cc1ccc(N(CC(C)C)S(=O)(=O)c2ccc3c(cnn3CC3CCOCC3)c2)c(C#N)c1 [Compound 70, 1-(tetrahydropyran-4-ylmethyl)-1H-indazole-5-sulfonic acid (2-cyano-4-methylphenyl)isobutylamide]",100 to 1000 nM
15,"CC(C)CN(c1ccccc1Cl)S(=O)(=O)c1ccc2c(cnn2CC2CCOCC2)c1 [Compound 45, 1-(tetrahydropyran-4-ylmethyl)-1H-indazole-5-sulfonic acid (2-chlorophenyl)isobutylamide]",> 1000 nM
16,"CCc1ccc(N(CC(C)C)S(=O)(=O)c2ccc3c(cnn3C3CCOCC3)c2)cc1 [Compound 38, 1-(tetrahydropyran-4-yl)-1H-indazole-5-sulfonic acid (4-ethylphenyl)isobutylamide]",> 1000 nM
